From ChEMBL document CHEMBL6153025, “Multidrug-resistant bacteria quorum-sensing inhibitors: A particular focus on Pseudomonasaeruginosa” (Eur J Med Chem, 2025)
Values after ≈ are worked out from the molar mass of the structure shown. Values belong to the compound of their own block, whether it stands above or below them.

Experiments:
Pseudomonas aeruginosa [1] = experiment: Antibacterial activity against Pseudomonas aeruginosa ATCC 27853 assessed as bacterial growth inhibition by agar diffusion assay; format: functional
Pseudomonas aeruginosa [2] = experiment: Antibacterial activity against Pseudomonas aeruginosa PAO1-L; format: functional, organism-based
Pseudomonas aeruginosa [3] = experiment: Antivirulence activity in Pseudomonas aeruginosa PAO1 assessed as reduction in pyocyanin production at 10 uM incubated for 24 hrs by absorbance based analysis relative to control; format: functional; design: scale not given: the % may be the effect or the level left
Pseudomonas aeruginosa [4] = experiment: Antibacterial activity against Pseudomonas aeruginosa ATCC 15442 assessed as reduction in bacterial cell growth incubated for 24 hrs by two fold serial microdilution method; format: functional
Pseudomonas aeruginosa [5] = experiment: Antibacterial activity against Pseudomonas aeruginosa PAO1 assessed as reduction in bacterial growth by broth microdilution method; format: functional, organism-based
[6] = Inhibition of quorum sensing system in Pseudomonas aeruginosa PAO1
Pseudomonas aeruginosa [7] = experiment: Antivirulence activity against Pseudomonas aeruginosa PAO1 assessed as reduction in pyocyanin level at 10 uM relative to control; format: functional; design: scale not given: the % may be the effect or the level left
Pseudomonas aeruginosa [8] = experiment: Antibacterial activity against Pseudomonas aeruginosa; format: functional
Bacillus pumilus = experiment: Antibacterial activity against Bacillus pumilus; format: functional
Staphylococcus aureus [9] = experiment: Antibacterial activity against Methicillin-sensitive Staphylococcus aureus; format: functional
Escherichia coli = experiment: Antibacterial activity against Escherichia coli; format: functional
Pseudomonas aeruginosa [10] = experiment: Anti-virulence effect in Pseudomonas aeruginosa PAO1 assessed as inhibition of rhamnolipid production at 10 uM relative to control; format: functional; design: scale not given: the % may be the effect or the level left
Bacillus subtilis = experiment: Antibacterial activity against Bacillus subtilis; format: functional
Pseudomonas aeruginosa [11] = experiment: Antibiofilm activity against Pseudomonas aeruginosa PA14 assessed as reduction in biofilm biomass production at 18 ug/ml relative to control; format: functional; design: scale not given: the % may be the effect or the level left; conditions: dose 18 µg/ml
Staphylococcus aureus [12] = experiment: Antibacterial activity against Methicillin-resistant Staphylococcus aureus; format: functional
Pseudomonas aeruginosa [13] = experiment: Antibiofilm activity against Pseudomonas aeruginosa PAO1 assessed as inhibition of biofilm formation at 100 uM relative to control; format: functional; design: scale not given: the % may be the effect or the level left
[14] = biological target: T1, Transcriptional activator protein LasR (Pseudomonas aeruginosa (strain ATCC 15692 / PAO1 / 1C / PRS 101 / LMG12228)) (UniProt P25084); experiment: Inhibition of LasR-mediated quorum sensing system in Pseudomonas aeruginosa PAO1 at 128 ug/ml relative to control; conditions: dose 128.0 µg/ml
T1 sequence (whole entry): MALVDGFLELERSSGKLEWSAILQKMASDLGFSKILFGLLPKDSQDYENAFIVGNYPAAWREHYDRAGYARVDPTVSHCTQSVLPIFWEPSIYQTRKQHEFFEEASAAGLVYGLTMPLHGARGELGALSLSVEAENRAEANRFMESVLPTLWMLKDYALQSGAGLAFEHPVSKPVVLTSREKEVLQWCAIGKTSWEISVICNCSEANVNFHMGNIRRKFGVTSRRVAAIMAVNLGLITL

MIC (Pseudomonas aeruginosa [1]): > 128 µg/mL
SMILES: O=C(CSc1nc2ccccc2s1)c1ccc(Cl)c(Cl)c1

IC50 (Pseudomonas aeruginosa [2]): 4.3 µM
SMILES: N#CCc1ccc(OCC(=O)Cn2cnc3ccc(Cl)cc3c2=O)cc1

SMILES: Clc1ccc2c(NCCCCCCCCNCc3csc4ccccc34)ccnc2c1
Activity (Pseudomonas aeruginosa [3]): 97%
MIC (Pseudomonas aeruginosa [4]): > 2 µM

IC50 (Pseudomonas aeruginosa [2]): 2.2 µM
SMILES: N#CCc1ccc(OCC(O)Cn2cnc3ccc(Cl)cc3c2=O)c(F)c1 (centres undefined)

SMILES: O=C1O/C(=C\Br)C=C1Br
IC50 (Pseudomonas aeruginosa [5]): 17.4 µM

IC50 [6]: 46.8 µM
SMILES: O=C(CNc1ccc(C(=O)/C=C/c2ccc(Cl)c(Cl)c2)cc1)N[C@@H]1CCOC1=O

SMILES: CCCCCCCCCCC(=O)NN1C(=O)CN(c2ccccc2O)C1=O
Activity (Pseudomonas aeruginosa [7]): 38.62%
MIC (Pseudomonas aeruginosa [8]): > 512 µg/mL
MIC (Bacillus pumilus): > 512 µg/mL
MIC (Staphylococcus aureus [9]): > 512 µg/mL
MIC (Escherichia coli): > 512 µg/mL
Activity (Pseudomonas aeruginosa [10]): 2.76%
MIC (Bacillus subtilis): > 512 µg/mL

SMILES: COc1cc(/C=C/c2cncnc2)c(C(=O)O)c(O)c1CC=C(C)C
Activity (Pseudomonas aeruginosa [11]): 36.11%

MIC (Pseudomonas aeruginosa [1]): > 512 µg/mL
SMILES: O=C(CSC1=NC2C=C([N+](=O)[O-])C=CC2=N1)Cc1ccc(Br)cc1 (centres undefined)

MIC (Pseudomonas aeruginosa [5]): 5 µM (≈ 2.03 µg/mL)
SMILES: CC(C)c1ccc(/C=C/C(=O)c2ccc(NCC(=O)N[C@@H]3CCOC3=O)cc2)cc1

IC50 [6]: 46.8 µM
SMILES: O=C(CNc1ccc(C(=O)/C=C/c2cc(Cl)cc(Cl)c2)cc1)N[C@@H]1CCOC1=O

MIC (Pseudomonas aeruginosa [1]): > 128 µg/mL
SMILES: O=C(CSc1nc2ccccc2s1)c1ccccc1

IC50 [6]: 46.8 µM
SMILES: O=C(CNc1ccc(C(=O)/C=C/c2ccc(F)cc2)cc1)N[C@@H]1CCOC1=O

SMILES: COc1ccc(OCCCCCCC(=O)NNC(=O)Cn2c(=O)oc3ncccc32)cc1
MIC (Pseudomonas aeruginosa [8]): > 512 µg/mL
MIC (Bacillus pumilus): > 512 µg/mL
MIC (Staphylococcus aureus [9]): > 512 µg/mL
MIC (Staphylococcus aureus [12]): > 512 µg/mL
MIC (Escherichia coli): > 512 µg/mL
Activity (Pseudomonas aeruginosa [10]): 6.34%
MIC (Bacillus subtilis): > 512 µg/mL

SMILES: COc1ccc(OCCCCC(=O)NNC(=O)Cn2c(=O)oc3ncccc32)cc1
MIC (Pseudomonas aeruginosa [8]): > 512 µg/mL
MIC (Bacillus pumilus): > 512 µg/mL
MIC (Staphylococcus aureus [9]): > 512 µg/mL
MIC (Staphylococcus aureus [12]): > 512 µg/mL
MIC (Escherichia coli): > 512 µg/mL
MIC (Bacillus subtilis): > 512 µg/mL

SMILES: O=c1cc(-c2ccc(O)c(O)c2)oc2cc(O)c([C@@H]3O[C@H](CO)[C@@H](O)[C@H](O)[C@H]3O)c(O)c12 [ISOORIENTIN]
Activity (Pseudomonas aeruginosa [13]): 18%

SMILES: COc1cc(/C=C/c2cccc3cccnc23)c(C(=O)O)c(O)c1CC=C(C)C
Activity (Pseudomonas aeruginosa [11]): 35.61%

SMILES: COc1cc(/C=C/c2ccc(S(F)(F)(F)(F)F)cc2)c(C(=O)O)c(O)c1CC=C(C)C
Activity (Pseudomonas aeruginosa [11]): 50%

SMILES: FC(F)(F)c1ccc(CNCCCCCCCCNc2ccnc3cc(Cl)ccc23)cc1
Activity (Pseudomonas aeruginosa [3]): 97%
MIC (Pseudomonas aeruginosa [4]): > 2 µM

SMILES: COc1cc(/C=C/c2ccc(C#N)cc2F)c(C(=O)O)c(O)c1CC=C(C)C
Activity (Pseudomonas aeruginosa [11]): 19.43%

inhibition [14]: 90.2%
SMILES: O=C(CN1CCSCC1)Oc1cccc([N+](=O)[O-])c1

SMILES: COc1ccc(OCCCCCCCC(=O)NNC(=O)Cn2c(=O)oc3ncccc32)cc1
Activity (Pseudomonas aeruginosa [7]): 53.1%
MIC (Pseudomonas aeruginosa [8]): > 512 µg/mL
MIC (Bacillus pumilus): > 512 µg/mL
MIC (Staphylococcus aureus [9]): > 512 µg/mL
MIC (Staphylococcus aureus [12]): > 512 µg/mL
MIC (Escherichia coli): > 512 µg/mL
Activity (Pseudomonas aeruginosa [10]): 6.34%
MIC (Bacillus subtilis): > 512 µg/mL

SMILES: O=c1cc(-c2ccc(O)c(O)c2)oc2c([C@H]3C[C@@H](O)[C@H](O)[C@@H](CO)O3)c(O)cc(O)c12
Activity (Pseudomonas aeruginosa [13]): 18%

SMILES: O=C(CCCCCOc1ccc(C(F)(F)F)cc1)NN1C(=O)CN(c2ccccc2O)C1=O
Activity (Pseudomonas aeruginosa [7]): 38.62%
MIC (Pseudomonas aeruginosa [8]): > 512 µg/mL
MIC (Bacillus pumilus): > 512 µg/mL
MIC (Staphylococcus aureus [9]): > 512 µg/mL
MIC (Escherichia coli): > 512 µg/mL
MIC (Bacillus subtilis): > 512 µg/mL

IC50 (Pseudomonas aeruginosa [2]): 4.3 µM
SMILES: N#CCc1ccc(OCC(F)Cn2cnc3ccc(Cl)cc3c2=O)cc1 (centres undefined)

inhibition [14]: 78.8%
SMILES: O=C(CCN1CCOCC1)Oc1cccc([N+](=O)[O-])c1

IC50 [6]: 62.5 µM
SMILES: O=C(CNc1ccc(C(=O)/C=C/c2ccccc2)cc1)N[C@@H]1CCOC1=O

MIC (Pseudomonas aeruginosa [1]): > 128 µg/mL
SMILES: COc1cc(C(=O)CSc2ccc3ccccc3n2)ccc1O

MIC (Pseudomonas aeruginosa [1]): > 128 µg/mL
SMILES: O=C(CSc1ccc2ccccc2n1)c1ccccc1

SMILES: CCCCCCCCNc1ccnc2cc(Cl)ccc12
Activity (Pseudomonas aeruginosa [3]): 80%
MIC (Pseudomonas aeruginosa [4]): > 2 µM

SMILES: Clc1ccc2c(NCCCCCCCCNCc3ncc[nH]3)ccnc2c1
Activity (Pseudomonas aeruginosa [3]): 97%
MIC (Pseudomonas aeruginosa [4]): > 2 µM

MIC (Pseudomonas aeruginosa [1]): > 128 µg/mL
SMILES: COc1ccc(C(=O)CSc2ccc3ccccc3n2)c(OC)c1

SMILES: O=Cc1ccc(O)c(O)c1 [PROTOCATECHUALDEHYDE]
Activity (Pseudomonas aeruginosa [13]): 18%

SMILES: Clc1ccc2c(NCCCCCCCCNCc3cc4ccccc4s3)ccnc2c1
Activity (Pseudomonas aeruginosa [3]): 97%
MIC (Pseudomonas aeruginosa [4]): > 2 µM

IC50 [6]: 37.6 µM
SMILES: O=C(CNc1ccc(C(=O)/C=C/c2ccccc2Br)cc1)N[C@@H]1CCOC1=O
